Experiments:
[1] = molecular target: T1, yeast CSE enzyme (CYS3) (Saccharomyces cerevisiae, UniProt P31373); assay: H2S production from SPRC by LC-MS/MS (sulfide dibimane); format: biochemical; conditions: 473 uM PAG; 473 uM SPRC as substrate; complete inhibition stated in words
T1 construct: full-length CYS3 gene amplified from S288C gDNA, expressed in E. coli (pTrc-CYS3), nickel column, SUMO-tag cut off
T1 sequence (P31373 2-394): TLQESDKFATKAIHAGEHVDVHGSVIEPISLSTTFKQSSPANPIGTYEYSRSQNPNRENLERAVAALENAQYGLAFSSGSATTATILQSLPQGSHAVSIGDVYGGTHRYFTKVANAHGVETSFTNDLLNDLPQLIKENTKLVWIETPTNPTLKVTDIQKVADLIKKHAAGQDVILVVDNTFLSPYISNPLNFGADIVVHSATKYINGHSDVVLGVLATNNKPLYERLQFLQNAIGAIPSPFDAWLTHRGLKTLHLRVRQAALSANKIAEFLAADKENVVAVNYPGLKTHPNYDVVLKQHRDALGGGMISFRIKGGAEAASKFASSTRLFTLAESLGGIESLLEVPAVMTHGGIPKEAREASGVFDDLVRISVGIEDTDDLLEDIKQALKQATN

[2] = molecular target: T1, yeast CSE enzyme (CYS3); assay: H2S production by LC-MS/MS and substrate consumption; format: biochemical

`C#CCC(N)C(=O)O` (racemic) [PAG, propargylglycine] was tested, and the “H2S production from SPRC by LC-MS/MS (sulfide dibimane)” value [1] was “propargylglycine (PAG) completely inhibited the hydrogen sulfide production of CYS3 by using SPRC”.

For `N[C@@H](CCSC[C@H](N)C(=O)O)C(=O)O` [CTT, L-cystathionine], the “H2S production by LC-MS/MS and substrate consumption” value ([2]; 473 uM CTT) was “hydrogen sulfide production increased rapidly whereas the amount of L-cystathionine (CTT) decreased accordingly”.

For `C#CCSC[C@H](N)C(=O)O` [SPRC, S-propargyl-cysteine], the “H2S production by LC-MS/MS and substrate consumption” value ([2]; 473 uM SPRC) was “SPRC elimination was accomplished with increased level of hydrogen sulfide in the CYS3 mixture”.
